Results from patent publication US7388007B2, “Gamma-lactams as beta-secretase inhibitors” (Bristol-Myers Squibb Company, priority 2004, dated 2008).
pIC50: −log10 of the molar value.

Target: T1, BACE1 enzyme (Homo sapiens, UniProt P56817)
T1 construct: The HEK293-9B.A1 cell line, which overexpresses the BACE1 enzyme, was derived from HEK293 cells; endogenous in cells; washed 48,000 x g membrane pellet / cell homogenate
Assay: Radioligand displacement assay with a radiolabeled BACE inhibitor on HEK293-9B.A1 cell homogenate
Type: binding
Conditions: displacement of 1 nM tritiated radioligand, HEK293-9B.A1 homogenate, pH 5.0, 1.5 hr at 25° C.; read-out: Activity Rating (based on IC50 values)
Excerpt: There are a number of methods by which inhibitors of the BACE enzyme can be identified experimentally. The enzyme can be obtained from membrane samples from natural tissues or cultured cells or can be expressed recombinantly in a host cell by well known methods of molecular biology. The whole enzyme or a portion thereof can be expressed, for example, in bacterial, insect or mammalian cells to obtain a catalytically active enzyme species. The enzymatic activity and/or ligand binding capability of the enzyme can be assessed within these membrane samples, or the enzyme can be purified to varying extents. As an illustrative example, the nucleic acid sequence encoding the pro and catalytic domains of human BACE can be appended on the 5′ end with an untranslated and signal sequence from the gene for acetylcholinesterase, and on the 3′ end with a sequence encoding a poly-histidine tag. This cDNA can then be expressed in Drosophila melanogaster S2 cells in which the signal and pro sequences of the transcribed/translated protein are removed by cellular proteases and the catalytic domain, appended by a C-terminal poly-histidine tag, is secreted out into the cellular medium. The enzyme can then be purified from the culture medium by nickel affinity chromatography by methods well known to those trained in the art [Mallender, W. et al., (2001) “Characterization of recombinant, soluble beta-secretase from an insect cell expression system.” Mol. Pharmacol. 59: 619-626]. Similar strategies for expressing and purifying various forms of BACE in bacterial, mammalian and other cell types would be known to one skilled in the art. A preferred method for determining the potency of a test compound in binding to the BACE enzyme is by moitoring the displacement of a suitable radioligand.
Radioligand displacement assays with a radiolabeled BACE inhibitor (WO 2004 013098, compound 3, where the methoxy group is substituted for C(^3H)3) were carried out using standard methods (Keen, M. (1999) in Receptor Binding Techniques (Walker, J. M. ed) p. 106 Humana Press, Totowa, N.J.). The HEK293-9B.A1 cell line, which overexpresses the BACE1 enzyme, was derived from HEK293 cells (Simmons, N. L. (1990) A cultured human renal epithelioid cell line responsive to vasoactive intestinal peptide. Exp. Physiol. 75:309-19.) by RAGE™ (Harrington, J. J. et al. (2001) Creation of genome-wide protein expression libraries using random activation of gene expression. Nat. Biotechnol. 19:440-5; U.S. Pat. Nos. 6,410,266 and 6,361,972). T225 flask cultures of HEK293-9B.A1 were grown to 80% confluency in DMEM supplemented with 2 mM L-glutamine, 10 μg/ml penecillin, 10 μg/ml streptomycin, 3 μg/ml puromycin, 100 nM methotrexate, and 10% fetal bovine serum (Invitrogen, Carlsbad, Calif.), harvested, and resuspended at 2×10^8 cells per 10 ml of lysis buffer consisting of 50 mM HEPES pH 7.0 containing a protease inhibitor cocktail of AEBSF 104 μM, aprotinin 80 nM, leupeptin 2 μM, bestatin 4 μM, pepstatin A 1.5 μM, and E-64 1.4 μM (0.1% of protease inhibitor cocktail P8340, Sigma-Aldrich, St. Louis, Mo.) at 4° C. The resuspended cells were homogenized using a Polytron (Brinkman, Westbury, N.Y.) at setting 6 for 10 sec., then centrifuged at 48,000×g for 10 min. The resulting pellet was washed by repeating the resuspension, homogenization and centrifugation steps. […]

T1 sequence (P56817 46-501): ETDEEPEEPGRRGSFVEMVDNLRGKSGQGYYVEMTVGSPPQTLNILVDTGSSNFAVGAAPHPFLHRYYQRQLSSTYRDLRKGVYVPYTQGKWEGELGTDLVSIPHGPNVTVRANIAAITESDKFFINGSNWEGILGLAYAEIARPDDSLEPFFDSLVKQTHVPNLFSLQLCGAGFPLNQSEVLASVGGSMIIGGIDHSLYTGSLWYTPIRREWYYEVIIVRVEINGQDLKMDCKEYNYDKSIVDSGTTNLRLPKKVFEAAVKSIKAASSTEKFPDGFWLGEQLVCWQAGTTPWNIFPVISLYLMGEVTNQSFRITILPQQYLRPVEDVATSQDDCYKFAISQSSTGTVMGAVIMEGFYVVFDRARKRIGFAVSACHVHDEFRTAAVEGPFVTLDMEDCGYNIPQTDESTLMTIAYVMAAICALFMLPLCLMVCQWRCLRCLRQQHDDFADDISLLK

CCCO[C@H]1CN[C@@H]([C@@H](O)[C@H](Cc2cc(F)cc(F)c2)NC(=O)[C@H](CCc2ccccc2)N2CC[C@](NC(C)=O)([C@@H](C)CC)C2=O)C1 (stereo in doubt) [Example 2, (S)-2-((R)-3-acetamido-3-secbutyl-2-oxopyrrolidin-1-yl)-N-((1R,2S)-3-(3,5-difluorophenyl)-1-hydroxy-1-((2R,4R)-4-propoxypyrrolidin-2-yl)propan-2-yl)-4-phenylbutanamide] and CC[C@@H](C)[C@@]1(NC(C)=O)CCN([C@@H](CCc2ccccc2)C(=O)N[C@@H](Cc2cc(F)cc(F)c2)[C@H](O)[C@H]2C[C@H](O)CN2)C1=O [Example 15, (S)-2-((S)-3-acetamido-3-((R)-sec-butyl)-2-oxopyrrolidin-1-yl)-N-((1R,2S)-3-(3,5-difluorophenyl)-1-hydroxy-1-((2R,4S)-4-hydroxypyrrolidin-2-yl)propan-2-yl)-4-phenylbutanamide] cannot be ordered by pIC50: > 7.00 for the first, > 7.00 for the second.

CCC(C)[C@@]1(NC(C)=O)CCN([C@@H](CCc2ccccc2)C(=O)N[C@@H](Cc2cc(F)cc(F)c2)[C@H](O)[C@H]2CCCCN2)C1=O (stereo in doubt) [Example 8, (S)-2-((S)-3-acetamido-3-((R)-sec-butyl)-2-oxopyrrolidin-1-yl)-N-((1R,2S)-3-(3,5-difluorophenyl)-1-hydroxy-1-((R)-piperidin-2-yl)propan-2-yl)-4-phenylbutanamide] and CCCS(=O)(=O)[C@H]1CN[C@@H]([C@@H](O)[C@H](Cc2ccccc2)NC(=O)[C@H](CCc2ccccc2)N2CC[C@](NC(C)=O)([C@H](C)CC)C2=O)C1 [Example 22, (S)-2-((S)-3-acetamido-3-((R)-sec-butyl)-2-oxopyrrolidin-1-yl)-N-((1R,2S)-1-hydroxy-3-phenyl-1-((2R,4R)-4-(propylsulfonyl)pyrrolidin-2-yl)propan-2-yl)-4-phenylbutanamide] cannot be ordered by pIC50: > 7.00 for the first, > 7.00 for the second.

CCCOC1CN[C@@H]([C@@H](O)C(Cc2cc(F)cc(F)c2)NC(=O)[C@H](C)N2CC[C@H](CC(C)C)C2=O)C1 (some centres unmarked) [Example 7] gave a pIC50 of 6.00 to 7.00.
